Read-outs that look alike come from different tables or passages of the source.
Experiments:
[1] = biological target: N-type calcium channel (α1B (Cav2.2), β3 and α2δ subunits) (Homo sapiens, UniProt Q00975); assay: Functional Assay: Antagonism of N-Type Calcium Channel (FDSS calcium mobilization, KCl depolarization); assay type: cell-based; details: for IC50: HEK cell line, 50 mM KCl depolarization, six-point concentration-response, read-out: FDSS IC50
Outline: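 HEK cells stably co-expressing α1B (Cav2.2), β3 and α2δ were loaded with calcium dye, then given compound with fluorescence recorded for 5 min before 50 mM KCl depolarisation and 3 min more reading. IC50 came from six-point curves of maximal fluorescence, normalised to KCl maximum and buffer minimum.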

[2] = biological target: N-type calcium channel (Homo sapiens, UniProt Q00975); assay: Automated Electrophysiology Assay (QPatch-HT whole-cell patch clamp; low- and high-frequency stimulation); assay type: cell-based
[3] = high-frequency stimulation (15th pulse), read-out: QPatch at High Frequency % Inhibition
[4] = low frequency, read-out: QPatch at Low Frequency % Inhibition

Sequence of N-type calcium channel (Q00975 whole entry): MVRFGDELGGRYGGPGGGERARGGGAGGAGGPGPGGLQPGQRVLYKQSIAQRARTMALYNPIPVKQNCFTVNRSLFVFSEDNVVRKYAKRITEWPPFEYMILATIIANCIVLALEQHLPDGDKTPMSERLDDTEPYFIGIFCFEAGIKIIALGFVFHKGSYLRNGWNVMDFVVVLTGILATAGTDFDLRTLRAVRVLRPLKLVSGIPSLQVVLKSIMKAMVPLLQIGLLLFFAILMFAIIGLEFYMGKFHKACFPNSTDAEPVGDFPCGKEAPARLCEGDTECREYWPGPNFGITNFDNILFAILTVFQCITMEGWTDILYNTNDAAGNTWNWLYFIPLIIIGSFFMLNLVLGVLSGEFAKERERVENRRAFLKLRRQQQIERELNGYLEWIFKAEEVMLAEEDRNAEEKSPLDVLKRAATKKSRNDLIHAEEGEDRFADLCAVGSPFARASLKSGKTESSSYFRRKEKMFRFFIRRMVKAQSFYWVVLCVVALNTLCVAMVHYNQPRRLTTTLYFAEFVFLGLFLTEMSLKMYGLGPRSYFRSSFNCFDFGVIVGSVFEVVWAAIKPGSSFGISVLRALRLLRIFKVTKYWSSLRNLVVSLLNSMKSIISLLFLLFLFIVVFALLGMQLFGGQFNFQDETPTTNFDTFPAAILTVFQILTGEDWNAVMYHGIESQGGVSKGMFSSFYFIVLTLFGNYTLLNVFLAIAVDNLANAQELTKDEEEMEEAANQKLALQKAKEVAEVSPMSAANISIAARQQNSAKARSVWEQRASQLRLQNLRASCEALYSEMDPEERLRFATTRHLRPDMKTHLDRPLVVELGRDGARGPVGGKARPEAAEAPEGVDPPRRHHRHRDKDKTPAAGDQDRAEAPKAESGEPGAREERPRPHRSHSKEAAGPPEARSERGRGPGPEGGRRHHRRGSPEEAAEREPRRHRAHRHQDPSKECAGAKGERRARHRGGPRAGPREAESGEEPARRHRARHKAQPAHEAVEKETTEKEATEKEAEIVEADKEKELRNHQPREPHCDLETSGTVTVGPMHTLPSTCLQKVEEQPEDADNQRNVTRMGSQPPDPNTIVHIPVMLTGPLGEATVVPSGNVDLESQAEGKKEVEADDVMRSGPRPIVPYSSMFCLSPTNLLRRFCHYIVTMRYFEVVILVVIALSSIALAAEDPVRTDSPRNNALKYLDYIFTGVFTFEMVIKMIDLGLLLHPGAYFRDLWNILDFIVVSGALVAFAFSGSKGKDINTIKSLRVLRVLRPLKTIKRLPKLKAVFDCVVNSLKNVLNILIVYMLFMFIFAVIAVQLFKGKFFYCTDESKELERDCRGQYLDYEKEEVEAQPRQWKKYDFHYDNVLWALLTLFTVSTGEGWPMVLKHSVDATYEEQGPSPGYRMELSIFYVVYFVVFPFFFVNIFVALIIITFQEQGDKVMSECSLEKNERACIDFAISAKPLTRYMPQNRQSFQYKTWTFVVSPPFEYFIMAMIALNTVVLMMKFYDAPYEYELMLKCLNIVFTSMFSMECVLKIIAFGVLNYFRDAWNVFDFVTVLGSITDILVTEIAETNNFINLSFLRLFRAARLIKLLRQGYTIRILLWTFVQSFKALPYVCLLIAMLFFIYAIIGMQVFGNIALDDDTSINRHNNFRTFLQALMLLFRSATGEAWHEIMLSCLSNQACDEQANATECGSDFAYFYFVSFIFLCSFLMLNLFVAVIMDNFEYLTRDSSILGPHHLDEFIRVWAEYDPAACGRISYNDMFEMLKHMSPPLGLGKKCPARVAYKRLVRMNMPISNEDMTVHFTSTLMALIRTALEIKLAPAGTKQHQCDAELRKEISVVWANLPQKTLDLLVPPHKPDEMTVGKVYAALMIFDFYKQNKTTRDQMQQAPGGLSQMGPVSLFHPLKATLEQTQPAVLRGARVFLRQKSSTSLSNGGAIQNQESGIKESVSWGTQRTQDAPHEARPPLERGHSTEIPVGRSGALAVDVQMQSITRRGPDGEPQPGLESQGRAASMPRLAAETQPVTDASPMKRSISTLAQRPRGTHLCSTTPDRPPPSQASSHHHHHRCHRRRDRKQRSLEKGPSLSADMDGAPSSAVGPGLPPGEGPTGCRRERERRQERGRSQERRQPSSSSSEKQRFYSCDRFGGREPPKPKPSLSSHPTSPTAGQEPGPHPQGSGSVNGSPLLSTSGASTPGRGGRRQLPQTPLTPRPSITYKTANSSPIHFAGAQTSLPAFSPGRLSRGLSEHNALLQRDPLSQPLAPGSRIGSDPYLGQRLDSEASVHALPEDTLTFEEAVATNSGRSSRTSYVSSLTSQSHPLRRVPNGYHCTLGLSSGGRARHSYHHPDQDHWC
Sequence of N-type calcium channel (P54284 whole entry partner): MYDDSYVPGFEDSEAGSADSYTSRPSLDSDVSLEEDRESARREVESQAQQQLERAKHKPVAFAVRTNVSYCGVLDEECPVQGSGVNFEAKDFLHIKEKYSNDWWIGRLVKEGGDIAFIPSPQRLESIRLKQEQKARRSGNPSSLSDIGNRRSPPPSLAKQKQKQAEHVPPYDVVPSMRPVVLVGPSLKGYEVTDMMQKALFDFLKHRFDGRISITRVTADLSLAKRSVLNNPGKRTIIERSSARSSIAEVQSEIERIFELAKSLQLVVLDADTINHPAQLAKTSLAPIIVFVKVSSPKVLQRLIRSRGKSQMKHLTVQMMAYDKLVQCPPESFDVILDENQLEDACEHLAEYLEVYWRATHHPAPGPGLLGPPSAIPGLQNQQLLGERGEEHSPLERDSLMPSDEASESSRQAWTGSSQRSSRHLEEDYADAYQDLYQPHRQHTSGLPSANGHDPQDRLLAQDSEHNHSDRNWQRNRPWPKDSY
Sequence of N-type calcium channel (P54289 25-946 partner limits assumed): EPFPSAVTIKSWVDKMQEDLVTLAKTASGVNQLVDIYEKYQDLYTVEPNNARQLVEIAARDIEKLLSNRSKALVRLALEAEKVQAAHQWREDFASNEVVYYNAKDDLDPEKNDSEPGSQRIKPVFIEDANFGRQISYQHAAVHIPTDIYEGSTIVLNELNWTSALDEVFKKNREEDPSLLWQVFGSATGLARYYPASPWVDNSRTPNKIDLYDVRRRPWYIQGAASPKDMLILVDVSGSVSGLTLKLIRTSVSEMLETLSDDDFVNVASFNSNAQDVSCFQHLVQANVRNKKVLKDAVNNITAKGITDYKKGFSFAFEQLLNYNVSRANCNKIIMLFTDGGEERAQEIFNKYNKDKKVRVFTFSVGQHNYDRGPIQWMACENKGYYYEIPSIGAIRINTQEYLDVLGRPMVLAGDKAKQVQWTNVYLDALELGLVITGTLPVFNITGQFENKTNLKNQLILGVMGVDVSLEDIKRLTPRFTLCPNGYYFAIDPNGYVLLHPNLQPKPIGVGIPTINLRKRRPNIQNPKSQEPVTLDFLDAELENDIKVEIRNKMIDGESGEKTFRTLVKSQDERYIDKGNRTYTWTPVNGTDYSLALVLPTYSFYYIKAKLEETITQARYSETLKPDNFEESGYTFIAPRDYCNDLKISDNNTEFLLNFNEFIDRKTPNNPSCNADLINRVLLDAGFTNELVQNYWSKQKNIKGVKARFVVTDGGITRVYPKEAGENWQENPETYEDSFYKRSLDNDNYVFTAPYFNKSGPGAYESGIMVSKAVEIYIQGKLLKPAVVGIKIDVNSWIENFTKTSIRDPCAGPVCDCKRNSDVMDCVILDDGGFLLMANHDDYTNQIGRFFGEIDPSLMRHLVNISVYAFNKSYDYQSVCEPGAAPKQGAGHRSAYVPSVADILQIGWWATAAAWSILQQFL
Sequence of N-type calcium channel (P54289 947-1103 partner limits assumed): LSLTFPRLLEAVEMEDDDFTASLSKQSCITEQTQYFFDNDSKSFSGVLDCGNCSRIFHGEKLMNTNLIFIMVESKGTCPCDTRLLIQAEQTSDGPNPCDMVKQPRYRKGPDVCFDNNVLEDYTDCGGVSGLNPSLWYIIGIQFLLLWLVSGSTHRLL
Sequence of N-type calcium channel (α1B (Cav2.2), β3 and α2δ subunits) (Q00975 whole entry): as the sequence (Q00975 whole entry) above
Sequence of N-type calcium channel (α1B (Cav2.2), β3 and α2δ subunits) (P54284 whole entry partner): as the sequence (P54284 whole entry partner) above
Sequence of N-type calcium channel (α1B (Cav2.2), β3 and α2δ subunits) (P54289 25-946 partner limits assumed): as the sequence (P54289 25-946 partner limits assumed) above
Sequence of N-type calcium channel (α1B (Cav2.2), β3 and α2δ subunits) (P54289 947-1103 partner limits assumed): as the sequence (P54289 947-1103 partner limits assumed) above

| Compound | inhibition at 0.33 µM [1] [%] | IC50 [1] [µM] | inhibition at 0.03 µM [2, 3] [%] | inhibition at 0.1 µM [2, 3] [%] | inhibition at 1 µM [2, 3] [%] | inhibition at 0.03 µM [2, 4] [%] | inhibition at 0.1 µM [2, 4] [%] | inhibition at 1 µM [2, 4] [%] | inhibition at 0.01 µM [2, 3] [%] | inhibition at 0.01 µM [2, 4] [%] |
| --- | --- | --- | --- | --- | --- | --- | --- | --- | --- | --- |
| CCC(CC)C(=O)O[C@H]1Cc2nn(-c3ccccc3OC)c(-c3ccc(Cl)cc3)c2C1 [Compound 55, (5R)-3-(4-chlorophenyl)-2-(2-methoxyphenyl)-2,4,5,6-tetrahydrocyclopenta[c]pyrazol-5-yl 2-ethylbutanoate] | 95 | 0.011 | 19 | 29 | 79 | 15 | 12 | 57 | – | – |
| COc1ccc(-c2c3c(nn2-c2ccccc2OC)C[C@H](N(C)S(=O)(=O)N(C)C)C3)cn1 [Compound 56, N-[(5R)-2-(2-Methoxyphenyl)-3-(6-methoxypyridin-3-yl)-2,4,5,6-tetrahydrocyclopenta[c]pyrazol-5-yl]-N,N′,N′-trimethylsulfamide] | 93 | 0.013 | – | 2 | 47 | – | -1 | 32 | – | – |
| COc1ccccc1-n1nc2c(c1-c1ccc(OC(C)C)nc1)C[C@@H](N(C)S(=O)(=O)N(C)C)C2 [Compound 57, N-{(5R)-2-(2-Methoxyphenyl)-3-[6-(1-methylethoxy)pyridin-3-yl]-2,4,5,6-tetrahydrocyclopenta[c]pyrazol-5-yl}-N,N′,N′-trimethylsulfamide] | 99 | 0.018 | – | – | 83 | – | – | 75 | – | – |
| COc1ccccc1-n1nc2c(c1-c1ccc(Cl)cc1)CC(c1cccnc1)C2 (stereo not drawn) [Compound 63, 3-(4-chlorophenyl)-2-(2-methoxyphenyl)-5-pyridin-3-yl-2,4,5,6-tetrahydrocyclopenta[c]pyrazole] | 98 | 0.0086 | – | – | 62 | – | – | 40 | – | – |
| COc1ccccc1-n1nc2c(c1-c1ccc(Cl)cc1)CC(N1CCOCC1)C2 (stereo not drawn) [Compound 68, 3-(4-chlorophenyl)-2-(2-methoxyphenyl)-5-morpholin-4-yl-2,4,5,6-tetrahydrocyclopenta[c]pyrazole] | 95 | 0.016 | – | 31 | – | – | 33 | – | – | – |
| CCC(CC)C(=O)O[C@@H]1Cc2nn(-c3ccccc3OC)c(-c3ccc(Cl)cc3)c2C1 [Compound 70, (5S)-3-(4-chlorophenyl)-2-(2-methoxyphenyl)-2,4,5,6-tetrahydrocyclopenta[c]pyrazol-5-yl 2-ethylbutanoate] | 96 | 0.015 | – | 19 | – | – | – | – | – | – |
| COc1ccccc1-n1nc2c(c1-c1ccc(Cl)cc1)C[C@H](OC(=O)C(C)C)C2 [Compound 81, (5S)-3-(4-chlorophenyl)-2-(2-methoxyphenyl)-2,4,5,6-tetrahydrocyclopenta[c]pyrazol-5-yl 2-methylpropanoate] | 86 | 0.048 | – | 12 | – | – | -4 | – | – | – |
| COc1ccccc1-n1nc2c(c1-c1ccc(C#N)cc1)CC1(C2)OCC(C)(C)CO1 [Compound 91, 4-[2-(2-methoxyphenyl)-5′,5′-dimethyl-2,6-dihydro-4H-spiro[cyclopenta[c]pyrazole-5,2′-[1,3]dioxan]-3-yl]benzonitrile] | 89 | 0.019 | – | 39 | 61 | – | 28 | 40 | 20 | 19 |
| COc1ccccc1-n1nc2c(c1-c1ccc(N(C)C)cc1)CC1(C2)OCC(C)(C)CO1 [Compound 93, 4-[2-(2-methoxyphenyl)-5′,5′-dimethyl-2,6-dihydro-4H-spiro[cyclopenta[c]pyrazole-5,2′-[1,3]dioxan]-3-yl]-N,N-dimethylaniline] | 91 | 0.012 | – | 30 | – | – | 12 | – | – | – |
| COc1ccc(-c2c3c(nn2-c2ccccc2OC)CC2(C3)OCC(C)(C)CO2)cn1 [Compound 96, 2-(2-methoxyphenyl)-3-(6-methoxypyridin-3-yl)-5′,5′-dimethyl-2,6-dihydro-4H-spiro[cyclopenta[c]pyrazole-5,2′-[1,3]dioxane]] | 81 | 0.034 | – | 20 | – | – | -1 | – | – | – |
| COc1ccccc1-n1nc2c(c1-c1ccc(N(C)C)nc1)CC1(C2)OCC(C)(C)CO1 [Compound 97, 5-[2-(2-methoxyphenyl)-5′,5′-dimethyl-2,6-dihydro-4H-spiro[cyclopenta[c]pyrazole-5,2′-[1,3]dioxan]-3-yl]-N,N-dimethylpyridin-2-amine] | 88 | 0.029 | – | 33 | – | – | 27 | – | – | – |
| COc1ccccc1-n1nc2c(c1-c1ccc(Cl)cc1)CC1(C2)O[C@H](C)[C@@H](C)O1 [Compound 98, (4′R,5′R)-3-(4-chlorophenyl)-2-(2-methoxyphenyl)-4′,5′-dimethyl-2,6-dihydro-4H-spiro[cyclopenta[c]pyrazole-5,2′-[1,3]dioxolane]] | 102 | 0.0059 | – | 28 | – | – | -6 | – | – | – |

Second part, the molecule after the results:

| inhibition at 0.33 µM [1] [%] | IC50 [1] [µM] | inhibition at 0.03 µM [2, 3] [%] | inhibition at 0.1 µM [2, 3] [%] | inhibition at 1 µM [2, 3] [%] | inhibition at 0.03 µM [2, 4] [%] | inhibition at 0.1 µM [2, 4] [%] | inhibition at 1 µM [2, 4] [%] | inhibition at 0.01 µM [2, 3] [%] | inhibition at 0.01 µM [2, 4] [%] | Compound |
| --- | --- | --- | --- | --- | --- | --- | --- | --- | --- | --- |
| 100 | 0.0057 | – | 61 | – | – | 48 | – | – | – | COc1ccccc1-n1nc2c(c1-c1ccc(Cl)cc1)C[C@H](OC(C)C)C2 [Compound 67, (5S)-3-(4-chlorophenyl)-2-(2-methoxyphenyl)-5-(1-methylethoxy)-2,4,5,6-tetrahydrocyclopenta[c]pyrazole] |
| 93 | 0.0096 | – | 26 | – | – | 15 | – | – | – | COc1ccccc1-n1nc2c(c1-c1ccc(Cl)cc1)C[C@H](O[Si](C)(C)C)C2 [Compound 69, (5S)-3-(4-chlorophenyl)-2-(2-methoxyphenyl)-5-[(trimethylsilyl)oxy]-2,4,5,6-tetrahydrocyclopenta[c]pyrazole] |
| 92 | 0.028 | – | 42 | – | – | 27 | – | – | – | COc1ccccc1-n1nc2c(c1-c1ccc(Cl)cc1)C[C@H](OC1CCCCO1)C2 (stereo partly drawn) [Compound 76, (5S)-3-(4-chlorophenyl)-2-(2-methoxyphenyl)-5-(tetrahydro-2H-pyran-2-yloxy)-2,4,5,6-tetrahydrocyclopenta[c]pyrazole] |
| 78 | 0.093 | – | 27 | – | – | 15 | – | – | – | COc1ccccc1-n1nc2c(c1-c1ccc(Cl)cc1)C[C@H](OC(=O)C1CCCCC1)C2 [Compound 78, (5S)-3-(4-chlorophenyl)-2-(2-methoxyphenyl)-2,4,5,6-tetrahydrocyclopenta[c]pyrazol-5-yl cyclohexanecarboxylate] |
| 82 | 0.075 | – | 11 | – | – | -7 | – | – | – | COc1ccccc1-n1nc2c(c1-c1ccc(Cl)cc1)C[C@H](OC(=O)C1CCCC1)C2 [Compound 79, (5S)-3-(4-chlorophenyl)-2-(2-methoxyphenyl)-2,4,5,6-tetrahydrocyclopenta[c]pyrazol-5-yl cyclopentanecarboxylate] |
| 89 | 0.031 | – | 22 | 43 | – | 7 | 6 | – | – | COc1ccccc1-n1nc2c(c1-c1ccc(Cl)cc1)C[C@H](OC(=O)C1CCC1)C2 [Compound 80, (5S)-3-(4-chlorophenyl)-2-(2-methoxyphenyl)-2,4,5,6-tetrahydrocyclopenta[c]pyrazol-5-yl cyclobutanecarboxylate] |
| 94 | 0.023 | – | 2 | – | – | -5 | – | – | – | COc1ccccc1-n1nc2c(c1-c1ccc(Cl)cc1)C[C@H](OCC(C)C)C2 [Compound 85, (5S)-3-(4-chlorophenyl)-2-(2-methoxyphenyl)-5-(2-methylpropoxy)-2,4,5,6-tetrahydrocyclopenta[c]pyrazole] |
| 83 | 0.043 | – | 33 | – | – | 22 | – | – | – | COc1ccccc1-n1nc2c(c1-c1ccc(Cl)cc1)C[C@H](OC1CCCCC1)C2 [Compound 88, (5S)-3-(4-chlorophenyl)-5-(cyclohexyloxy)-2-(2-methoxyphenyl)-2,4,5,6-tetrahydrocyclopenta[c]pyrazole] |
| 85 | 0.049 | – | 26 | – | – | 6 | – | – | – | COc1ccccc1-n1nc2c(c1-c1ccc(Cl)cc1)C[C@H](O[C@H]1C[C@@H]3CC[C@H]1C3)C2 [Compound 89, (5S)-5-[(1S,2S,4R)-bicyclo[2.2.1]hept-2-yloxy]-3-(4-chlorophenyl)-2-(2-methoxyphenyl)-2,4,5,6-tetrahydrocyclopenta[c]pyrazole] |
| 89 | 0.022 | – | 21 | – | – | 10 | – | – | – | COc1ccccc1-n1nc2c(c1-c1ccc(Cl)cc1)C[C@H](OC1CCCC1)C2 [Compound 90, (5S)-3-(4-chlorophenyl)-5-(cyclopentyloxy)-2-(2-methoxyphenyl)-2,4,5,6-tetrahydrocyclopenta[c]pyrazole] |

— US8853418B2, “Cyclopentylpyrazoles as N-type calcium channel blockers” (Janssen Pharmaceutica NV, priority 2012, dated 2014)
